Here are results for two substances from patent US20110142873A1 (priority 2006, published 2011).

Experiment [1] deals with E7-specific CD8-positive T lymphocytes. On the set-up: species or system C57Bl/6 mice. The note with it: mouse, in vivo.
A further experiment relates to E7 and HspE7. Further details: species or system C57Bl/6 female mice. The note with it: mouse, in vivo.
Experiment [2] deals with E7-expressing TC-1.K tumor cells. Description: Regression of large, established TC-1 tumors treated from day 28. Further details: species or system C57Bl/6 mice. The note with it: mouse, in vivo.
In experiment [3] the test system is E7-expressing TC-1 tumors. Further details: species or system C57BL/6 mice. The note with it: mouse, in vivo, sc.

On to PolyICLC, for which, in experiment [1], the “biological activity of immune stimulant administered in the absence of HspE7” value is reported as “did not display this activity”. Further, in the experiment with E7 and HspE7, the “antibody response to E7 and HspE7” value is given as “did not produce an antibody response”. For the same substance, the “regression of large, established tumors” value in experiment [2] was “no regression”.

In the case of PolyI:C, the “biological activity of immune stimulant administered in the absence of HspE7” value in experiment [1] is reported as “did not display this activity”. The anti-tumor activity result in experiment [3] is “no effect on tumor growth”.
